Source: US4206215A, “Antimicrobial bis-[4-(substituted-amino)-1-pyridinium]alkanes” (Sterling Drug Inc., priority 1977, dated 1980)
Where two headings read alike, the source gives them in different places.

Assays:
K. pneum. 39645 = test: In vitro antibacterial activity, MIC (modified Autotiter method); assay type: cell-based, Klebsiella pneumoniae; details: 18-20 hours at 37° C.
Outline: (§1)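 Compounds are diluted serially by twofold steps in sterile water using the Autotiter, beginning with a 1,000 mcg./ml. solution; addition of inoculated double-strength semisynthetic medium with glucose yields final concentrations between 500 and 0.06 mcg./ml.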

Ps. aerug. MGH-2 = test: as above; assay type: cell-based, Pseudomonas aeruginosa; details: 18-20 hours at 37° C.
Outline: as §1

T. menta. 9129 = test: In vitro antifungal activity, MIC (modified Autotiter method); assay type: cell-based, Trichophyton mentagrophytes; details: 18-20 hours at 37° C.
Outline: as §1

P. mirab. MGH-1 = test: In vitro antibacterial activity, MIC (modified Autotiter method); assay type: cell-based, Proteus mirabilis; details: 18-20 hours at 37° C.
Outline: as §1

S. pyogen. C203 = test: as above; assay type: cell-based, Streptococcus pyogenes; details: 18-20 hours at 37° C.
Outline: as §1

A. niger 16404 = test: In vitro antifungal activity, MIC (modified Autotiter method); assay type: cell-based, Aspergillus niger; details: 18-20 hours at 37° C.
Outline: as §1

[1] = test system: young adult male Swiss-Webster strain albino mice; test: Acute oral toxicity (ALD50); assay type: in vivo
Method: (§2) The acute oral toxicity (ALD50) of several representative examples was determined as follows: Groups of 3 young adult male Swiss-Webster strain albino mice were fasted approximately 4 hours before medication and then medicated once orally by stomach tube.

[2] = Acute oral toxicity (ALD50); assay type: in vivo; details: mouse, in vivo, po, mice, read-out: 7-Day ALD50
Method: as §2

E. coli 100/B22 = test: In vitro antibacterial activity, MIC (modified Autotiter method); assay type: cell-based, Escherichia coli; details: for MIC E. coli 100/B22: 18-20 hours at 37° C.
Outline: as §1

E. coli Vogel = test: as above; assay type: cell-based, Escherichia coli; details: 18-20 hours at 37° C.
Outline: as §1

E. coli AB1932-1 = test: as above; assay type: cell-based, Escherichia coli; details: 18-20 hours at 37° C.
Outline: as §1

S. Aureus Smith = test: as above; assay type: cell-based, Staphylococcus aureus; details: 18-20 hours at 37° C.
Outline: as §1

C. albicans Wisc. = test: In vitro antifungal activity, MIC (modified Autotiter method); assay type: cell-based, Candida albicans; details: 18-20 hours at 37° C.
Outline: as §1

C. albicans 10231 = test: as above; assay type: cell-based, Candida albicans; details: 18-20 hours at 37° C.
Outline: as §1

S. Aureus ATCC 6538 = test: Effect of serum on bacteriostatic activity (serial tube dilution test); assay type: cell-based, Staphyloccocus aureus; details: for MIC: Staphylococcus aureus, ATCC6538
Method: (§3) Antibacterial effectiveness in the presence of serum was determined for representative examples by the standard serial tube dilution test wherein paired comparisons of minimum inhibitory concentrations (MIC) were determined in the absence and in the presence of heat inactivated (30 min. at 56° C.) horse serum (40%) in the test medium. The results are expressed as the fold increase in MIC (mcg./ml.) versus Staphyloccocus aureus and Escherichia coli caused by the presence of serum and are presented in Table B hereinbelow.

[3] = test system: Herpes simplex type 2 virus; test: Virucidal activity in vitro (plaque inhibition test); assay type: cell-based; details: 2 mg. of test compound on growth medium
Method: Virucidal activity of representative examples against Herpes simplex type 2 virus was determined in vitro employing a procedure similar to the plaque inhibition test for detection of specific inhibitors of DNA-containing viruses published by E. C. Herrmann, Jr., Proc. Soc. Exp. Biol. Med. 107, 142 (1961) wherein 2 mg. of the test compound was placed on the surface of the growth medium.

E. Coli ATCC 8739 = test: Effect of serum on bacteriostatic activity (serial tube dilution test); assay type: cell-based, Escherichia coli; details: for MIC: Escherichia coli, ATCC8739
Method: as §3

[4] = 250 mg/kg oral, aqueous solution
[5] = 500 mg/kg oral, aqueous solution
[6] = 1000 mg/kg oral, aqueous solution
[7] = 125 mg/kg oral, aqueous solution
[8] = 125 mg/kg oral, suspension in 1% G.T.
[9] = 250 mg/kg oral, suspension in 1% G.T.
[10] = 500 mg/kg oral, suspension in 1% G.T.
[11] = 1000 mg/kg oral, suspension in 1% G.T.

Structure (SMILES) | MIC K. pneum. 39645 (K. pneum. 39645) | MIC Ps. aerug. MGH-2 (Ps. aerug. MGH-2) | MIC T. menta. 9129 (T. menta. 9129) | MIC P. mirab. MGH-1 (P. mirab. MGH-1) | MIC S. pyogen. C203 (S. pyogen. C203) | MIC A. niger 16404 (A. niger 16404) | Mortality 7 Days [1, 4] | Mortality 24 Hrs [1, 4] | Mortality 7 Days [1, 5] | Mortality 24 Hrs [1, 5] | Mortality 7 Days [1, 6] | Mortality 24 Hrs [1, 6] | LD50 at 168 h ([2]; aqueous solution) | MIC E. coli 100/B22 (E. coli 100/B22) | MIC E. coli Vogel (E. coli Vogel) | MIC E. coli AB1932-1 (E. coli AB1932-1) | MIC S. Aureus Smith (S. Aureus Smith) | MIC C. albicans Wisc. (C. albicans Wisc.) | MIC C. albicans 10231 (C. albicans 10231) | Mortality 7 Days [1, 7] | other results
CCCCCCCNc1cc[n+](CCCCCCCCC[n+]2ccc(NCCCCCCC)cc2)cc1 [Example 25, 1,9-Bis-[4-(heptylamino)-1-pyridinium]nonane dichloride] | 1.95 µg/mL | 31.3 µg/mL | 1.0 µg/mL | 31.3 µg/mL | 0.5 µg/mL | 1.95 µg/mL | 1/3 | 1/3 | 1/3 | 1/3 | 3/3 | 3/3 | 500 mg/kg | 1.0 µg/mL | 1.0 µg/mL | 1.0 µg/mL | 0.25 µg/mL | 1.0 µg/mL | 1.0 µg/mL |  | Autopsy, gross tissue changes ([1]; oral, 7 days, Example 25: 1000 mg./kg.): congestion of the glandular portion of the stomachs of two of the three mice was observed
CCCCC(CC)CNc1cc[n+](CCCCCCCCCC[n+]2ccc(NCC(CC)CCCC)cc2)cc1 (stereo not drawn) [Example 59, 1,10-Bis-[4-(2-ethylhexylamino)-1-pyridinium]-decane dichloride] | 1.95 µg/mL | 31.3 µg/mL | 1.0 µg/mL | 7.8 µg/mL | 1.0 µg/mL | 15.6 µg/mL | 0/3 | 0/3 | 2/3 | 1/3 | 1/3 | 1/3 | 750 mg/kg | 0.5 µg/mL | 1.0 µg/mL | 1.0 µg/mL | 0.25 µg/mL | 1.95 µg/mL | 1.95 µg/mL | 0/3 | Mortality 24 Hrs [1, 7]: 0/3
CCCCCCCNc1cc[n+](CCCCCCCC[n+]2ccc(NCCCCCCC)cc2)cc1 [Example 23] | 1.95 µg/mL | 31.3 µg/mL | 1.95 µg/mL | 62.6 µg/mL | 1.0 µg/mL | 7.8 µg/mL | 0/3 | 0/3 | 1/3 | 1/3 | 3/3 | 3/3 | 625 mg/kg | 1.95 µg/mL | 1.95 µg/mL | 1.0 µg/mL | 0.5 µg/mL | 1.95 µg/mL | 1.0 µg/mL | 0/3 | Mortality 24 Hrs [1, 7]: 0/3
CCCCCCCCNc1cc[n+](CCCCCCCC[n+]2ccc(NCCCCCCCC)cc2)cc1 [Example 12, 1,8-Bis-[4-(octylamino)-1-pyridinium]octane dichloride] | 1.0 µg/mL | 7.8 µg/mL | 1.0 µg/mL | 3.9 µg/mL | 0.5 µg/mL | 7.8 µg/mL | 0/3 | 0/3 | 1/3 | 1/3 | 2/3 | 2/3 | 750 mg/kg | 0.5 µg/mL | 1.0 µg/mL | 1.0 µg/mL | 0.25 µg/mL | 1.0 µg/mL | 1.0 µg/mL | 0/3 | Mortality 24 Hrs [1, 7]: 0/3
CCCCCCNc1cc[n+](CCCCCCCCCCCCCC[n+]2ccc(NCCCCCC)cc2)cc1 [Example 6] | 1.0 µg/mL | 3.9 µg/mL | 0.5 µg/mL | 3.9 µg/mL | 1.95 µg/mL | 3.9 µg/mL | 1/3 | 0/3 | 2/3 | 2/3 | 3/3 | 3/3 | 315 mg/kg | 0.5 µg/mL | 1.0 µg/mL | 0.5 µg/mL | 0.5 µg/mL | 1.95 µg/mL | 1.0 µg/mL | 1/3 | Mortality 24 Hrs [1, 7]: 1/3
CCCCCCCNc1cc[n+](CCCCCCCCCCCCCC[n+]2ccc(NCCCCCCC)cc2)cc1 [Example 2, 1,14-bis-[4-(heptylamino)-1-pyridinium]tetradecane dichloride] | 3.9 µg/mL |  |  | 3.9 µg/mL |  | 7.8 µg/mL |  |  |  |  |  |  |  |  |  | 1.0 µg/mL |  | 7.8 µg/mL | 3.9 µg/mL |  | MIC (Ps. aerug. MGH-2; Pseudomonas aeruginosa, 20 h, read-out: MIC Ps. aerug. MGH-2): 1.95 µg/mL; MIC (T. menta. 9129; Trichophyton mentagrophytes, 20 h, read-out: MIC T. menta. 9129): 1 µg/mL; MIC (S. pyogen. C203; Streptococcus pyogenes, 20 h, read-out: MIC S. pyogen. C203): 1 µg/mL; Mortality 7 Days [1, 8]: 0/3; Mortality 24 Hrs [1, 8]: 0/3; Mortality 7 Days [1, 9]: 1/3; Mortality 24 Hrs [1, 9]: 0/3; Mortality 7 Days [1, 10]: 0/3; Mortality 24 Hrs [1, 10]: 0/3; Mortality 7 Days [1, 11]: 1/3; Mortality 24 Hrs [1, 11]: 0/3; LD50 at 168 h ([2]; suspension in 1% gum tragacanth): 1000 mg/kg; MIC (E. coli 100/B22; Escherichia coli, 100/B22, 20 h, read-out: MIC E. coli 100/B22, 18-20 hours at 37° C.): 1 µg/mL; MIC (E. coli Vogel; Escherichia coli, 20 h, read-out: MIC E. coli Vogel): 1.95 µg/mL; MIC (S. Aureus Smith; Staphylococcus aureus, 20 h, read-out: MIC S. Aureus Smith): 1 µg/mL
CCCCCCCNc1cc[n+](CCCCCCCCCCCCCC[n+]2ccc(NCCCCCCC)cc2)cc1 [Example 1D, 1,14-bis-[4-(heptylamino)-1-pyridinium]-tetradecane dibromide] | 0.77 µg/mL | 3.0 µg/mL | 0.77 µg/mL | 1.54 µg/mL | 1.95 µg/mL | 3.0 µg/mL |  |  |  |  |  |  |  | 0.77 µg/mL | 1.54 µg/mL | 3.0 µg/mL | 0.77 µg/mL | 1.54 µg/mL | 1.54 µg/mL |  | Fold Increase in MIC S. Aureus ATCC 6538 (S. Aureus ATCC 6538; 40% vs 0% horse serum): 16 fold; MIC (S. Aureus ATCC 6538; 40% heat inactivated horse serum, read-out: MIC S. Aureus ATCC 6538 40% Serum): 3.12 µg/mL; MIC (S. Aureus ATCC 6538; read-out: MIC S. Aureus ATCC 6538 0% Serum): 0.195 µg/mL; Virucidal activity against Herpes simplex type 2 virus [3]: active; Fold Increase in MIC E. Coli ATCC 8739 (E. Coli ATCC 8739; 40% vs 0% horse serum): 16 fold; MIC (E. Coli ATCC 8739; 40% heat inactivated horse serum, read-out: MIC E. Coli ATCC 8739 40% Serum): 25 µg/mL; MIC (E. Coli ATCC 8739; read-out: MIC E. Coli ATCC 8739 0% Serum): 1.56 µg/mL; Mortality 7 Days [1, 8]: 0/3; Mortality 24 Hrs [1, 8]: 0/3; Mortality 7 Days [1, 9]: 0/3; Mortality 24 Hrs [1, 9]: 0/3; Mortality 7 Days [1, 10]: 1/3; Mortality 24 Hrs [1, 10]: 1/3; Mortality 7 Days [1, 11]: 2/3; Mortality 24 Hrs [1, 11]: 2/3; 7-Day ALD50 ([1]; oral, suspension in 1% gum tragacanth, 10080 min): 750 mg/kg
